Measured values from ChEMBL document CHEMBL5335810, “1,3-Disubstituted-1,2,4-triazin-6-ones with potent activity against androgen receptor-dependent prostate cancer cells” (Bioorg Med Chem, 2024).
Calls of active or inactive are those of the source. No cut-off for these calls is given here.

Assays:
[1] = Drug uptake in C57BL6 mouse plasma at 25 mg/kg, po via gavage measured for 4 hrs by LC-MS/MS analysis; format: ADME, organism-based; settings: in vivo
PC-3 = assay: Inhibition of cell viability in AR-independent human PC-3 cells by Steady-Glo luciferase assay; format: functional, cell-based
CWR22R [2] = assay: Inhibition of cell viability in ARV7-positive human 22Rv1 cells by Steady-Glo luciferase assay; format: functional, cell-based
[3] = Distribution coefficient, logD of compound by chromatography; format: physicochemical; settings: octanol/water
[4] = Metabolic stability in mouse liver microsomes assessed as intrinsic clearance measured per mg protein; format: ADME, Microsome; settings: read-out: CLH
[5] = Metabolic stability in mouse liver microsomes assessed as half life; format: ADME, Microsome
LNCaP = assay: Inhibition of cell viability in AR-dependent human LNCaP cells by Steady-Glo luciferase assay; format: functional, cell-based
[6] = AUC (0 to infinity) in Sprague-Dawley rat at 25 mg/kg, IG measured for 24 hrs by LC-MS/MS analysis; format: ADME, organism-based; parameters: time 24 hrs, dose 25 mg/kg, route ig; settings: in vivo, po
[7] = Oral bioavailability in Sprague-Dawley rat at 25 mg/kg measured for 24 hrs by LC-MS/MS analysis; format: ADME, organism-based; settings: in vivo
[8] = C0 in Sprague-Dawley rat at 1.8 mg/kg, iv measured for 24 hrs by LC-MS/MS analysis; format: ADME, organism-based; settings: in vivo
DU-145 = assay: Inhibition of cell viability in AR-independent human DU-145 cells by Steady-Glo luciferase assay; format: functional, cell-based
[9] = Tmax in Sprague-Dawley rat at 25 mg/kg, IG measured for 24 hrs by LC-MS/MS analysis; format: ADME, organism-based; settings: in vivo, po
CWR22R [10] = assay: Antitumor activity against human 22Rv1 cells xenografted in SCID C.B17 mouse assessed as tumor growth inhibition by measuring tumor volume at 50 mg/kg/day, IG measured for 21 days by caliper method; format: functional, organism-based; settings: time 21.0 day
[11] = Elimination rate constant in Sprague-Dawley rat at 1.8 mg/kg, iv measured for 24 hrs by LC-MS/MS analysis; format: ADME, organism-based; settings: in vivo
[12] = MRT (0 to infinity) in Sprague-Dawley rat at 25 mg/kg, IG measured for 24 hrs by LC-MS/MS analysis; format: ADME, organism-based; settings: in vivo, po
[13] = Toxicity in SCID C.B17 mouse xenografted with human 22Rv1 cells assessed as body weight loss at 50 mg/kg/day, IG measured for 21 days; format: organism-based, CWR22R; settings: in vivo, po, 504 h, time 21 day
[14] = AUC (0 to t) in Sprague-Dawley rat at 25 mg/kg, IG measured for 24 hrs by LC-MS/MS analysis; format: ADME, organism-based; parameters: dose 25 mg/kg, time 24 hrs, route ig; settings: in vivo, po
[15] = Elimination rate constant in Sprague-Dawley rat at 25 mg/kg, IG measured for 24 hrs by LC-MS/MS analysis; format: ADME, organism-based; settings: in vivo, po
[16] = Inhibition of cell viability in human adipose stromal cells by CCK8 assay; format: toxicity, cell-based
HEK-293T = assay: Downregulation of AR-v1 expression transfected in human HEK293T cells at 0.5 to 1 uM incubated for 24 to 72 hrs by Western blot analysis; format: functional, cell-based; settings: dose 0.5-1 µM, time 24-72 hrs
[17] = biological target: T1, Androgen receptor (Homo sapiens) (UniProt P10275); assay: Inhibition of androgen receptor transfected in human HEK293T cells incubated for 24 to 72 hrs by Western blot analysis; format: cell-based; settings: dose 0.5-1 µM, time 24-72 hrs
T1 sequence (whole entry): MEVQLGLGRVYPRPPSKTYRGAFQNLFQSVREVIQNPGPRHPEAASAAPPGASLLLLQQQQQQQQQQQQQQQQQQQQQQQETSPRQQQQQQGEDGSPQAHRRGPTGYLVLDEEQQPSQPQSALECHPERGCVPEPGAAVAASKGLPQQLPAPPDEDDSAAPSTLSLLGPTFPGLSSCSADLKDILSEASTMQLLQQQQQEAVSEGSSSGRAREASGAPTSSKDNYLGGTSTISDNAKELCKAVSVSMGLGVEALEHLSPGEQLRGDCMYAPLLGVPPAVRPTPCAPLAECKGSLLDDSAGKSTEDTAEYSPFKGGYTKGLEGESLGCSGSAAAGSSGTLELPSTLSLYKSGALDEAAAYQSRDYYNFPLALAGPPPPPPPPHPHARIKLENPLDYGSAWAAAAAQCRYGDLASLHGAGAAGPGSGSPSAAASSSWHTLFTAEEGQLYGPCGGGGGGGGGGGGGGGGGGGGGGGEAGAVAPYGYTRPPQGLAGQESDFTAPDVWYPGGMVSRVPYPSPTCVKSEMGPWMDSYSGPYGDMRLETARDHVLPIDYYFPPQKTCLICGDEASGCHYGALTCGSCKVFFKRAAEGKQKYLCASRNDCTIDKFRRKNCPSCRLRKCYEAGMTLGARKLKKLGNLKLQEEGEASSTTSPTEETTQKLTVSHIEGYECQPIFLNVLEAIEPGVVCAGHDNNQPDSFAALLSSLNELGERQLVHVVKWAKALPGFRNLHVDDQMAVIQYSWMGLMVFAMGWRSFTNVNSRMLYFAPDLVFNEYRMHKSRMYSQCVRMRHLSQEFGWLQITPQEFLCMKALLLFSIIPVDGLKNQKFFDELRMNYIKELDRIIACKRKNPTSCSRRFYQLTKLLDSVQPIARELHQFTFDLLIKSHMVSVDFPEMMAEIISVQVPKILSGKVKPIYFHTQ

CWR22R [18] = assay: Antitumor activity against human 22Rv1 cells xenografted in SCID C.B17 mouse assessed as tumor growth inhibition by measuring tumor weight at 50 mg/kg/day, IG measured for 21 days by caliper method; format: functional, organism-based; settings: time 21.0 day
[19] = MRT (0 to t) in Sprague-Dawley rat at 25 mg/kg, IG measured for 24 hrs by LC-MS/MS analysis; format: ADME, organism-based; settings: in vivo, po
[20] = Half life in Sprague-Dawley rat at 1.8 mg/kg, iv measured for 24 hrs by LC-MS/MS analysis; format: ADME, organism-based; settings: in vivo
[21] = Volume of distribution at steady state in Sprague-Dawley rat at 1.8 mg/kg, iv measured for 24 hrs by LC-MS/MS analysis; format: ADME, organism-based; settings: in vivo, read-out: Vdss
[22] = Cmax in Sprague-Dawley rat at 25 mg/kg, IG measured for 24 hrs by LC-MS/MS analysis; format: ADME, organism-based; parameters: dose 25 mg/kg, time 24 hrs, route ig; settings: in vivo, po
[23] = AUC (0 to t) in Sprague-Dawley rat at 1.8 mg/kg, iv measured for 24 hrs by LC-MS/MS analysis; format: ADME, organism-based; parameters: time 24 hrs, dose 1.8 mg/kg, route iv; settings: in vivo
[24] = biological target: T1, Androgen receptor (Homo sapiens); assay: Inhibition of androgen receptor in human 22Rv1 cells assessed as decrease in HGF mRNA level at 1 uM incubated for 36 hrs by RNA sequencing analysis; format: cell-based
[25] = Clearance in Sprague-Dawley rat at 1.8 mg/kg, iv measured for 24 hrs by LC-MS/MS analysis; format: ADME, organism-based; settings: in vivo
[26] = MRT (0 to infinity) in Sprague-Dawley rat at 1.8 mg/kg, iv measured for 24 hrs by LC-MS/MS analysis; format: ADME, organism-based; settings: in vivo
[27] = MRT (0 to t) in Sprague-Dawley rat at 1.8 mg/kg, iv measured for 24 hrs by LC-MS/MS analysis; format: ADME, organism-based; settings: in vivo
[28] = AUC (0 to infinity) in Sprague-Dawley rat at 1.8 mg/kg, iv measured for 24 hrs by LC-MS/MS analysis; format: ADME, organism-based; parameters: dose 1.8 mg/kg, time 24 hrs, route iv; settings: in vivo
[29] = biological target: T1, Androgen receptor (Homo sapiens); assay: Inhibition of androgen receptor transfected in human HEK293T cells at 0.5 to 1 uM by Western blot analysis; format: cell-based; settings: dose 0.5-1 µM, time 24-72 hrs, TDE = time-dependent effect
LNCaP C4-2B = assay: Inhibition of cell viability in AR-dependent human LNCaP C4-2B cells by Steady-Glo luciferase assay; format: functional, cell-based
[30] = Half life in Sprague-Dawley rat at 25 mg/kg, IG measured for 24 hrs by LC-MS/MS analysis; format: ADME, organism-based; settings: in vivo, po

## O=c1cnc(-c2ccccc2)nn1Cc1ccc(Cl)cc1
[1]
  Drug uptake: Not Active
PC-3
  IC50: 10.9 µM
CWR22R [2]
  IC50: 0.6 µM

## O=c1cnc(-c2ccccc2)nn1C1CCCC1
PC-3
  IC50: 10.1 µM
[3]
  chromatographic logD: 3.8
CWR22R [2]
  IC50: 0.49 µM
[4]
  microsomal CLint: 296 µL/min/mg
[5]
  half-life: 0.1 h

## COc1cccc(-c2ncc(=O)n(Cc3ccc(Cl)cc3Cl)n2)c1
PC-3
  IC50: 0.43 µM
CWR22R [2]
  IC50: 0.15 µM

## O=c1cnc(Cc2ccccc2)nn1CC1CC1
PC-3
  IC50: 0.6 µM
CWR22R [2]
  IC50: 0.39 µM

## O=c1cnc(Cc2ccccc2)nn1Cc1ccccc1
PC-3
  IC50: 9.79 µM
CWR22R [2]
  IC50: 0.74 µM

## N#CCCCn1nc(-c2ccccc2)ncc1=O
PC-3
  IC50: 42.9 µM
CWR22R [2]
  IC50: 3.03 µM

## O=c1cnc(-c2cccc(Cl)c2)nn1Cc1cccc(Cl)c1
PC-3
  IC50: 11.4 µM
CWR22R [2]
  IC50: 2.66 µM

## Cc1nc(Cn2nc(-c3ccccc3)ncc2=O)cs1
[1]
  Drug uptake: Not Active
PC-3
  IC50: 4.37 µM
CWR22R [2]
  IC50: 0.69 µM

## COc1cccc(-c2ncc(=O)n(Cc3ccc(Cl)c(Cl)c3)n2)c1
PC-3
  IC50: > 10 µM
CWR22R [2]
  IC50: 3.31 µM

## O=c1cnc(Cc2ccccc2)nn1Cc1cccc(C(F)(F)F)c1
[1]
  Drug uptake: Not Active
PC-3
  IC50: 2.52 µM
CWR22R [2]
  IC50: 0.13 µM

## O=c1cnc(-c2ccccc2)nn1Cc1ccccc1Cl
PC-3
  IC50: 2.55 µM
[3]
  chromatographic logD: 4.3
CWR22R [2]
  IC50: 0.27 µM
[4]
  microsomal CLint: 181 µL/min/mg
[5]
  half-life: 0.167 h

## O=c1cnc(Cc2ccccc2)nn1Cc1ccc(Cl)c(Cl)c1
[1]
  Drug uptake: Not Active
PC-3
  IC50: 2.14 µM
CWR22R [2]
  IC50: 0.2 µM

## O=c1cnc(Cc2ccccc2)nn1Cc1ccc(Cl)cc1Cl
LNCaP
  IC50: 0.17 µM
[6]
  AUC(0-inf): 27500 ng·h/mL
[1]
  Drug uptake: Active
[7]
  bioavailability: 12.6%
[8]
  C0 at 24 h: 12600 ng/mL
DU-145
  IC50: 1.85 µM
[9]
  Tmax: 4 h
PC-3
  IC50: 1.48 µM
CWR22R [10]
  TGI: Active
[11]
  k el at 24 h: 2.5e-05 s⁻¹
[12]
  MRT inf: 9.27 h
[13]
  Activity: Non-Toxic
[14]
  AUC(0-t) at 24 h: 26500 ng·h/mL
[15]
  k el at 24 h: 4.17e-05 s⁻¹
[16]
  IC50: 3.33 µM
HEK-293T
  Activity: inactive
[17]
  inhibition: Dose-Dependent Effect
CWR22R [18]
  TGI: Active
[19]
  MRT last at 24 h: 8.4 h
[20]
  half-life: 8.02 h
[21]
  Vd: 0.87 L/kg
[22]
  Cmax: 1910 ng/mL
[23]
  AUC(0-t) at 24 h: 14300 ng·h/mL
[24]
  inhibition: Active
[25]
  clearance: 2.02 mL/min/kg
[26]
  MRT inf: 7.65 h
CWR22R [2]
  IC50: 0.18 µM
[27]
  MRT last at 24 h: 5.05 h
[28]
  AUC(0-inf): 15700 ng·h/mL
[29]
  inhibition: Tde
LNCaP C4-2B
  IC50: 0.32 µM
[30]
  half-life: 4.59 h

## CC(C)n1nc(-c2ccccc2)ncc1=O
PC-3
  IC50: 32.5 µM
CWR22R [2]
  IC50: 0.92 µM

## CC(C)CCn1nc(-c2ccccc2)ncc1=O
PC-3
  IC50: 10.8 µM
CWR22R [2]
  IC50: 0.64 µM

## O=c1cnc(Cc2ccccc2)nn1CC1CCCCC1
PC-3
  IC50: 2.94 µM
CWR22R [2]
  IC50: 3.23 µM

## O=c1cnc(-c2ccccc2)nn1-c1ccccc1
PC-3
  IC50: > 10 µM
CWR22R [2]
  IC50: 2.19 µM

## COc1ccc(Cn2nc(-c3cccc(OC)c3)ncc2=O)cc1
PC-3
  IC50: > 10 µM
CWR22R [2]
  IC50: 3.12 µM

## O=c1cnc(-c2cccc(Br)c2)nn1Cc1cccc(Cl)c1
PC-3
  IC50: 11.8 µM
CWR22R [2]
  IC50: 3.25 µM

## O=c1cnc(-c2ccccc2)nn1Cc1cccc(C(F)(F)F)c1
[1]
  Drug uptake: Not Active
PC-3
  IC50: 5.28 µM
CWR22R [2]
  IC50: 0.22 µM

## O=c1cnc(-c2ccccc2)nn1Cc1ccc(Cl)nc1
[1]
  Drug uptake: Not Active
PC-3
  IC50: 3.23 µM
CWR22R [2]
  IC50: 0.09 µM

## O=c1cnc(-c2ccccc2)nn1-c1ccc(Cl)cc1
PC-3
  IC50: 3.34 µM
CWR22R [2]
  IC50: 1.4 µM
